In patent US20050214886A1, “TNF modulation” (YEDA RESEARCH AND DEVELOPMENT CO. LTD., priority 1995, published 2005):

System: 26 kDa TNF molecules in HeLa-M9 cells
Experiment: [32P] metabolic labeling and immunoprecipitation: phosphorylation of 26 kDa TNF
Format: cell-based, human
Settings: preliminary experiments, data not shown
From the text: The intracellular region is the only part of the TNF molecule accessible for phosphorylation by cytoplasmic protein kinases. The specific kinases involved in TNF phosphorylation are not known, nor is it known if, and in what way, the activity of these kinases is subject to modulation by agents that affect TNF activity. Evidently, the phosphorylation observed in the HeLa-M9 cells, in which TNF was synthesized without stimulation, reflects the function of kinase(s) that constitutively act in these cells. On the other hand, the phosphorylation observed in the LPS-stimulated MM6 cells could involve effects of LPS activated protein kinases (Liu et al., 1994; Han et al., 1995). The serine at position −50 seems to be a suitable substrate for phosphorylation by protein kinase C (Kennelly and Krebs, 1991).
Labeling of cells with [^35S]Met or [^32P) orthophosphate was performed by incubation in Met-free or phosphate-free medium, supplemented with 5 or 10% FCS, that had been dialyzed against either PBS or 0.9% NaCl, respectively. […]
Immunoprecipitation was performed using sheep anti-TNF antiserum or, as a control, non-immune sheep serum, at a dilution of 1:200. […] The immunoprecipitated proteins were analyzed by SDS-PAGE under reducing conditions (12% acrylamide). […]

## CCCCCCCCCCCCCC(=O)O[C@@H]1[C@@H](C)[C@@]2(O)[C@@H](C=C(CO)C[C@]3(O)C(=O)C(C)=C[C@@H]23)[C@@H]2C(C)(C)[C@]12OC(C)=O [4β-phorbol-12-myristate-13-acetate]
  increase of phosphorylation of the 26 kDa TNF molecules: did not observe any increase of phosphorylation
